The text below walks through data of ChEMBL document CHEMBL1201862, “PubChem BioAssay data set” (2004).

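Five compound concentrations were applied to cells in 96-well plates for 48 hours; endpoints were derived by simple linear interpolation of the resulting dose-response curve. The concentration for 50% growth inhibition is given as GI50.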 Calls of active or inactive are those of the source. Cut-off read from the data, not from the text of the source: active = GI50 up to about 1.1 µM and inactive = higher.

Test systems include NCI/ADR-RES; MDA-MB-231; Hs-578T; A498; SF-268; SF-295; U-251; LOX IMVI; CCRF-CEM; MCF7; NCI-H522; RXF 393; UACC-62; IGROV-1; Malme-3M; HT-29; T47D; SNB-75; TK-10; SN12C.
Common to all, as to assay: NCI-60 cell line screen, 48 h

`CCOC(=O)C(c1c[nH]c2ccccc12)(c1c[nH]c2ccccc12)c1c[nH]c2ccccc12`: the GI50 is 82.6 µM (inactive) in the assay with NCI/ADR-RES; 36.8 µM (inactive) with MDA-MB-231; 23.7 µM (inactive) with Hs-578T; 35.2 µM (inactive) with A498; 32.8 µM (inactive) in the assay with SF-268; 30.4 µM (inactive) with SF-295. Also, the GI50 with U-251 was 36.9 µM (inactive); in the assay on LOX IMVI, 31.9 µM (inactive); with CCRF-CEM it was 17.2 µM (inactive); with MCF7, 19.7 µM (inactive); with NCI-H522, 27 µM (inactive); in the assay on RXF 393 it was 21.7 µM (inactive). In addition, the GI50 is 25.9 µM (inactive) in the assay on UACC-62; 33.3 µM (inactive) in the assay with IGROV-1; 30.4 µM (inactive) in the assay with Malme-3M; 34.4 µM (inactive) with HT-29; 16.2 µM (inactive) in the assay with T47D; 20.4 µM (inactive) in the assay on SNB-75. Further, the GI50 was 41.3 µM (inactive) with TK-10 and 43 µM (inactive) in the assay with SN12C.
As to `O=P(NC12CC3CC(CC(C3)C1)C2)(N1CC1)N1CC1`, the GI50 in the assay on NCI/ADR-RES was 53 µM (inactive); in the assay on MDA-MB-231, > 100 µM (inactive); in the assay with Hs-578T, 89.3 µM (inactive); in the assay with A498 it was 45.5 µM (inactive); in the assay on SF-268, 12.3 µM (inactive); in the assay on SF-295, 10 µM (inactive). Besides, the GI50 with U-251 is 27.4 µM (inactive); in the assay with LOX IMVI it was 11.1 µM (inactive); with CCRF-CEM, 7.24 µM (inactive); in the assay on MCF7, 9.71 µM (inactive); with NCI-H522 it was 25.7 µM (inactive); in the assay on RXF 393, 15.4 µM (inactive). In addition, the GI50 in the assay on UACC-62 was 4.16 µM (inactive); in the assay on IGROV-1 it was > 92.9 µM (inactive); in the assay on Malme-3M, 84.9 µM (inactive); in the assay with HT-29 it was 21.2 µM (inactive); in the assay on T47D, 94.8 µM (inactive); with SNB-75, 22.4 µM (inactive). Moreover, the GI50 with TK-10 was > 100 µM (inactive); in the assay with SN12C, 10.5 µM (inactive).
`Cc1nn(C(=O)c2ccccc2O)c2c1C(c1ccc(O)cc1)SC(=N)N2` (stereo not drawn): the GI50 in the assay with NCI/ADR-RES was 2.03 µM (inactive); with MDA-MB-231, > 3.18 µM (inactive); in the assay on Hs-578T, 0.449 µM (active); in the assay with A498, 3.06 µM (inactive); in the assay on SF-268, 3.45 µM (inactive); in the assay on SF-295 it was 1.26 µM (inactive). Besides, the GI50 in the assay with U-251 was 1.37 µM (inactive); in the assay with LOX IMVI, 1.36 µM (inactive); with CCRF-CEM, 1.7 µM (inactive); with MCF7, > 2.36 µM (inactive); with NCI-H522, > 3.29 µM (inactive); in the assay with RXF 393 it was 1.23 µM (inactive). Further, the GI50 with UACC-62 is 0.929 µM (active); with IGROV-1 it was 2.08 µM (inactive); in the assay with Malme-3M, 0.601 µM (active); in the assay with HT-29, > 6.9 µM (inactive); with T47D, 1.23 µM (inactive); in the assay on SNB-75 it was 0.74 µM (active). The figures for the GI50 in the assay on TK-10 and in the assay with SN12C were > 2.52 µM (inactive) and 1.79 µM (inactive), respectively.
As to `NC(Cc1ccccc1)c1nn[nH]n1` (stereo not drawn), the GI50 with NCI/ADR-RES, with MDA-MB-231, with Hs-578T, in the assay on A498, in the assay with SF-268 and in the assay with SF-295 was > 100 µM (inactive) throughout. Further, the GI50 in the assay with U-251, in the assay with LOX IMVI, with CCRF-CEM, in the assay with MCF7, in the assay on NCI-H522 and with RXF 393 was > 100 µM (inactive) in each case. The GI50 in the assay with UACC-62, with IGROV-1, in the assay on Malme-3M, with HT-29, in the assay on T47D and in the assay on SNB-75 was > 100 µM (inactive) throughout. Further, the GI50 in the assay on TK-10 and in the assay on SN12C was > 100 µM (inactive) each time.
As to `Cc1nc(-n2nc(-c3ccccc3)cc2-c2ccccc2)sc1C(=O)/C=C/c1ccc([N+](=O)[O-])cc1`, the GI50 with NCI/ADR-RES is 17.2 µM (inactive); with MDA-MB-231, 33.1 µM (inactive); in the assay with Hs-578T it was 27.7 µM (inactive); in the assay on A498, > 43.8 µM (inactive); with SF-268, 16.7 µM (inactive); in the assay with SF-295, > 46.6 µM (inactive). The GI50 with U-251 is 16 µM (inactive); with LOX IMVI it was 15.7 µM (inactive); in the assay on CCRF-CEM it was 14 µM (inactive); in the assay on MCF7, 5.74 µM (inactive); in the assay with NCI-H522 it was 16.5 µM (inactive); in the assay on RXF 393, 16.7 µM (inactive). The GI50 is 19.4 µM (inactive) in the assay on UACC-62; 20.5 µM (inactive) in the assay on IGROV-1; 34.2 µM (inactive) with Malme-3M; 16.3 µM (inactive) with HT-29; 9.25 µM (inactive) with T47D; 2.69 µM (inactive) in the assay with SNB-75. Besides, the GI50 in the assay with TK-10 was 41.5 µM (inactive); with SN12C, 29.1 µM (inactive).
On to `COc1cc(OC)c(C2(c3c(OC(C)C)c(=O)c3=O)SCCCS2)cc1OC`, for which the GI50 in the assay with NCI/ADR-RES, in the assay with MDA-MB-231, in the assay with Hs-578T, in the assay with A498, in the assay on SF-268 and with SF-295 was > 100 µM (inactive) in each case. Also, the GI50 in the assay with U-251, in the assay on LOX IMVI, in the assay with CCRF-CEM, in the assay with MCF7, with NCI-H522 and in the assay on RXF 393 was > 100 µM (inactive) throughout. For the same molecule, the GI50 in the assay with UACC-62, in the assay on IGROV-1, in the assay on Malme-3M, in the assay with HT-29, with T47D and in the assay with SNB-75 was > 100 µM (inactive) in each case. The GI50 in the assay on TK-10 and with SN12C was > 100 µM (inactive) in each case.
As for `O=C1CSC(c2ccccc2O)N1c1ccc(-c2ccc(-n3c(-c4ccccc4)nc4ccccc4c3=O)cc2)cc1` (stereo not drawn), the GI50 was 30.1 µM (inactive) in the assay with NCI/ADR-RES; 36.9 µM (inactive) in the assay with MDA-MB-231; 40.1 µM (inactive) in the assay with Hs-578T; 70 µM (inactive) in the assay with A498; 45.3 µM (inactive) in the assay with SF-268; 22.5 µM (inactive) in the assay with SF-295. The GI50 in the assay with U-251 is 33.7 µM (inactive); with LOX IMVI, 25.7 µM (inactive); in the assay with CCRF-CEM, 26.4 µM (inactive); in the assay on MCF7, 28.1 µM (inactive); in the assay with NCI-H522, 19.2 µM (inactive); with RXF 393, 35.1 µM (inactive). For the same molecule, the GI50 in the assay on UACC-62 is 27.7 µM (inactive); in the assay on IGROV-1 it was 15.3 µM (inactive); in the assay with Malme-3M, 17.2 µM (inactive); in the assay with HT-29, 13.3 µM (inactive); in the assay on T47D, 23 µM (inactive); in the assay with SNB-75, 24.9 µM (inactive). For the same molecule, the GI50 in the assay on TK-10 was 16.1 µM (inactive); in the assay on SN12C, 74 µM (inactive).
Regarding `c1ccc2c(c1)CN1CCCC1CN2` (stereo not drawn), the GI50 in the assay with NCI/ADR-RES, in the assay with MDA-MB-231, in the assay with Hs-578T, in the assay with A498, in the assay on SF-268 and in the assay on SF-295 was > 100 µM (inactive) in each case. Also, the GI50 in the assay on U-251, in the assay with LOX IMVI, with CCRF-CEM, in the assay with MCF7, in the assay with NCI-H522 and with RXF 393 was > 100 µM (inactive) each time. The GI50 in the assay with UACC-62, in the assay with IGROV-1, in the assay on Malme-3M, in the assay with HT-29, with T47D and in the assay with SNB-75 was > 100 µM (inactive) throughout. Also, the GI50 in the assay with TK-10 and in the assay on SN12C was > 100 µM (inactive) throughout.
As to `O=c1c(-c2ccccc2)nnc2n(Cc3ccccc3)c3ccccc3n12`, the GI50 in the assay with NCI/ADR-RES, in the assay with MDA-MB-231, in the assay with Hs-578T, with A498, with SF-268 and with SF-295 was > 100 µM (inactive) throughout. Also, the GI50 is > 100 µM (inactive) in the assay with U-251; > 100 µM (inactive) with LOX IMVI; > 100 µM (inactive) with CCRF-CEM; > 100 µM (inactive) in the assay with MCF7; 26.7 µM (inactive) with NCI-H522; 95.1 µM (inactive) in the assay with RXF 393. For the same molecule, the GI50 in the assay with IGROV-1, in the assay on Malme-3M, in the assay with HT-29, in the assay with T47D, with SNB-75 and with TK-10 was > 100 µM (inactive) throughout. Further, in the assay on SN12C, the GI50 was > 100 µM (inactive).
Consider `COc1cc(C(=O)Oc2ccc3c(c2)OCO3)cc(OC)c1OC`, for which the GI50 in the assay on NCI/ADR-RES, in the assay on MDA-MB-231, with Hs-578T, in the assay with A498, in the assay with SF-268 and with SF-295 was > 100 µM (inactive) in each case. Also, the GI50 in the assay on U-251, in the assay on LOX IMVI, with MCF7, with NCI-H522, in the assay on RXF 393 and in the assay on UACC-62 was > 100 µM (inactive) in each case. In addition, the GI50 in the assay with IGROV-1, in the assay with Malme-3M, in the assay on HT-29, in the assay with T47D, in the assay on SNB-75 and in the assay with TK-10 was > 100 µM (inactive) each time. Further, the GI50 with SN12C is > 100 µM (inactive).
